Data taken from US4356322A, “Phenoxyalkanolamine derivatives” (Veb Arzneimittelwerk Dresden, priority 1977, dated 1982).
Structures can show the parent of a compound that is named as a salt. Where two headings read alike, the source gives them in different places.

Columns and labels:
circulation of dogs = test: effects on the circulation of dogs under continual intravenous infusion; type: in vivo, dog; conditions: for ED30: Canis lupus familiaris, iv; for effective period / heart's oxygen demand / peripheral cardiovascular system: in vivo; for contractility, cardiac frequency and cardiac output: increases occur at approximately parallel rates
Text: Column 1: Infusion rate in μg/kg/min
Column 2: Cumulative dose in μg/kg
Rate of pressure increase in the left ventricle (dp/dt/max) in mm Hg·s^-1
ED30 =dosage for 30% increase in inotropy, in μg/kg
Max=maximum increase in percent in inotropy at dose μg/kg
Column 4: Cardiac frequency in n·min^-1
ED30 =dosage for 30% increase in frequency, in μg/kg
Max=maximum increase in percent in frequency at dose μg/kg
Column 5: Cardiac output ml·min^-1 ·kg^-1
Column 6: Diastolic blood pressure in mm Hg
Column 7: Number of animals used in the experiments
X=median values (initial value and after cumulative dose)
%=change in percent of initial value
In these experiments, the compounds were used in the form of hydrochlorides.

cat = test: β-mimetic effect on contractility and cardiac frequency in anesthetized cat; type: in vivo; conditions: HCl salt
in vivo = conditions: rat, iv
rats = conditions: rat, intravenous, acute; HCl salt
β-receptor = conditions: M. J. Davey, Arch. Pharmacol. 179 (1973); cited from earlier work
[1] = dog, i.v. infusion, read-out: ED30, dosage for 30% increase in frequency
[2] = dog, 0,125 μg/kg/min, cumulative dose --
[3] = dog, at 0,1875 (μg/kg), i.v. infusion
[4] = dog, i.v. infusion, read-out: ED30, dosage for 30% increase in inotropy
[5] = dog, 12,5 μg/kg/min, cumulative dose --
[6] = dog, at 50 μg/kg, i.v. infusion
[7] = dog, 1,00 μg/kg/min, cumulative 10,0 μg/kg
[8] = dog, at 30 μg/kg, i.v. infusion
[9] = dog, 10,0 μg/kg/min, cumulative 200 μg/kg
[10] = dog, 1,00 μg/kg/min, cumulative 20,0 μg/kg
[11] = dog, 0,25 μg/kg/min, cumulative 15,0 μg/kg
[12] = dog, at 15 μg/kg, i.v. infusion
[13] = dog, 1,00 μg/kg/min, cumulative 30,0 μg/kg

Compound: CC(C)NCC(O)c1ccc(O)c(O)c1 (stereo not drawn) [Isoprenaline-Sulphate, reference compound]
- ED30 (circulation of dogs; [1]): 0.06 µg/kg
- Cardiac frequency, change in percent of initial value (circulation of dogs; [2]): +51%
- Cardiac frequency, median initial value - value after dose (circulation of dogs; [2]): 76-115 n.min^-1
- Cardiac output, change in percent of initial value (circulation of dogs; [2]): +94%
- Cardiac output, median initial value - value after dose (circulation of dogs; [2]): 130 to 253 mL/min/kg
- Diastolic blood pressure, change in percent of initial value (circulation of dogs; [2]): -3%
- dp/dt max, change in percent of initial value (circulation of dogs; [2]): +64%
- dp/dt max, median initial value - value after dose (circulation of dogs; [2]): 3136-5140 mm Hg.s^-1
- Max, maximum increase in percent in frequency (circulation of dogs; [3]): +75%
- Max, maximum increase in percent in inotropy (circulation of dogs; [3]): +116%
- effective period (circulation of dogs; dog): rather brief
- heart's oxygen demand (circulation of dogs; dog): excessive rise in the heart's oxygen demand
- peripheral cardiovascular system (circulation of dogs; dog): a dilation of the peripheral cardiovascular system
- contractility, cardiac frequency and cardiac output (circulation of dogs): increases in contractility, cardiac frequency and cardiac output

Compound: CC(CCc1ccc(O)cc1)NCCc1ccc(O)c(O)c1 (stereo not drawn) [Dobutamine, reference compound]
- ED30 (circulation of dogs; [1]): 23 µg/kg
- ED30 (circulation of dogs; [4]): 7.5 µg/kg
- frequency and cardiovascular dilation (circulation of dogs; at higher dosages): strong increases in frequency and in cardiovascular dilation
- Cardiac frequency, change in percent of initial value (circulation of dogs; [5]): +8%
- Cardiac frequency, median initial value - value after dose (circulation of dogs; [5]): 78-84 n.min^-1
- Cardiac output, change in percent of initial value (circulation of dogs; [5]): +23%
- Cardiac output, median initial value - value after dose (circulation of dogs; [5]): 152 to 186 mL/min/kg
- Diastolic blood pressure, change in percent of initial value (circulation of dogs; [5]): +3%
- Diastolic blood pressure, median initial value - value after dose (circulation of dogs; [5]): 101-103 mm Hg
- dp/dt max, change in percent of initial value (circulation of dogs; [5]): +75%
- dp/dt max, median initial value - value after dose (circulation of dogs; [5]): 3088-5410 mm Hg.s^-1
- Max, maximum increase in percent in frequency (circulation of dogs; [6]): +56%
- Max, maximum increase in percent in inotropy (circulation of dogs; [6]): +191%
- effective period (circulation of dogs; dog): equal to the rather brief effective period of isoprenaline
- inotropy (circulation of dogs; in words): strong rise in inotropy

Compound: CC(C)NCC(O)COc1cccc2ccccc12 (stereo not drawn) [Propranolol, reference compound]
- HR, percent change from initial value in heart frequency (cat; D 0.10 mg/kg i.v.): -8%
- dp/dt max, percent change from initial value, left ventricle (cat; D 0.10 mg/kg i.v.): -8%

Compound: O=[N+]([O-])c1cccc(NCCNCC(O)COc2ccccc2)c1 (stereo not drawn) [Example 16, 3-[β-(3-nitrophenylamino)-ethyl]-amino-2-hydroxy-1-phenoxypropane]
- LD50 (in vivo): 44000 µg/kg
- ED30 (circulation of dogs; [1]): 20 µg/kg
- ED30 (circulation of dogs; [4]): 5 µg/kg
- Cardiac frequency, change in percent of initial value (circulation of dogs; [7]): +13%
- Cardiac frequency, median initial value - value after cumulative dose (circulation of dogs; [7]): 83-94 n.min^-1
- Cardiac output, change in percent of initial value (circulation of dogs; [7]): +32%
- Cardiac output, median initial value - value after cumulative dose (circulation of dogs; [7]): 129 to 169 mL/min/kg
- dp/dt max, change in percent of initial value (circulation of dogs; [7]): +71%
- dp/dt max, median initial value - value after cumulative dose (circulation of dogs; [7]): 3068-5230 mm Hg.s^-1
- Max, maximum increase in percent in frequency (circulation of dogs; [8]): +39%
- Max, maximum increase in percent in inotropy (circulation of dogs; [8]): +100%
- HR, percent change from initial value in heart frequency (cat; D 0.01 mg/kg i.v.): +13%
- dp/dt max, percent change from initial value, left ventricle (cat; D 0.01 mg/kg i.v.): +57%

Compound: COc1cccc(C(=O)CCN[C@@H](C)[C@H](O)c2ccccc2)c1.Cl [d-l-Oxyphedrine Hydrochloride, reference compound]
- Cardiac frequency, change in percent of initial value (circulation of dogs; [9]): +56%
- Cardiac frequency, median initial value - value after cumulative dose (circulation of dogs; [9]): 75-117 n.min^-1
- Cardiac output, change in percent of initial value (circulation of dogs; [9]): +65%
- Cardiac output, median initial value - value after cumulative dose (circulation of dogs; [9]): 112 to 186 mL/min/kg
- Diastolic blood pressure, change in percent of initial value (circulation of dogs; [9]): -13%
- dp/dt max, change in percent of initial value (circulation of dogs; [9]): +50%
- dp/dt max, median initial value - value after cumulative dose (circulation of dogs; [9]): 3072-4600 mm Hg.s^-1
- Max, maximum increase in percent in inotropy (circulation of dogs; dog, at 500 μg/kg, i.v. infusion): +89%
- Max, maximum increase in percent in frequency (circulation of dogs; dog, at 600 μg/kg, i.v. infusion): +104%
- ED30, dosage for 30% increase in frequency (circulation of dogs; dog, i.v. infusion): 130 µg/kg
- ED30, dosage for 30% increase in inotropy (circulation of dogs; dog, i.v. infusion): 130 µg/kg
- heart's oxygen demand (circulation of dogs; dog): excessive rise in the heart's oxygen demand
- peripheral cardiovascular system (circulation of dogs; dog): a dilation of the peripheral cardiovascular system
- contractility, cardiac frequency and cardiac output (circulation of dogs): increases in contractility, cardiac frequency and cardiac output
- LD50 (rats): 26000 µg/kg
- HR, percent change from initial value in heart frequency (cat; D 0.50 mg/kg i.v.): +2%
- dp/dt max, percent change from initial value, left ventricle (cat; D 0.50 mg/kg i.v.): +38%

Compound: Nc1cccc(NCCNCC(O)COc2ccccc2)c1 (stereo not drawn) [Example 17, 3-[β-(3-aminophenylamino)-ethyl]-amino-2-hydroxy-1-phenoxypropane trihydrochloride]
- LD50 (in vivo): 66000 µg/kg
- ED30 (circulation of dogs; [1]): 16 µg/kg
- ED30 (circulation of dogs; [4]): 5.5 µg/kg
- Cardiac frequency, change in percent of initial value (circulation of dogs; [10]): +33%
- Cardiac frequency, median initial value - value after cumulative dose (circulation of dogs; [10]): 85-113 n.min^-1
- Cardiac output, change in percent of initial value (circulation of dogs; [10]): +44%
- Cardiac output, median initial value - value after cumulative dose (circulation of dogs; [10]): 138 to 198 mL/min/kg
- Diastolic blood pressure, change in percent of initial value (circulation of dogs; [10]): +1%
- Diastolic blood pressure, median initial value - value after cumulative dose (circulation of dogs; [10]): 103-104 mm Hg
- dp/dt max, change in percent of initial value (circulation of dogs; [10]): +84%
- dp/dt max, median initial value - value after cumulative dose (circulation of dogs; [10]): 3071-5663 mm Hg.s^-1
- Max, maximum increase in percent in inotropy (circulation of dogs; dog, at 40 μg/kg, i.v. infusion): +93%
- Max, maximum increase in percent in frequency (circulation of dogs; [6]): +49%
- HR, percent change from initial value in heart frequency (cat; D 0.01 mg/kg i.v.): +19%
- dp/dt max, percent change from initial value, left ventricle (cat; D 0.01 mg/kg i.v.): +84%

Compound: Cc1cccc(C)c1NCCNCC(O)COc1ccccc1 (stereo not drawn) [Example 7, 3-[β-(2,6-dimethylphenylamino)-ethyl]-amino-2-hydroxy-1-phenoxypropane hydrochloride]
- LD50 (in vivo): 32000 µg/kg
- ED30 (circulation of dogs; [1]): 15 µg/kg
- ED30 (circulation of dogs; [4]): 5 µg/kg
- Cardiac frequency, change in percent of initial value (circulation of dogs; [11]): +30%
- Cardiac frequency, median initial value - value after cumulative dose (circulation of dogs; [11]): 72-93 n.min^-1
- Cardiac output, change in percent of initial value (circulation of dogs; [11]): +35%
- Cardiac output, median initial value - value after cumulative dose (circulation of dogs; [11]): 138 to 185 mL/min/kg
- Diastolic blood pressure, change in percent of initial value (circulation of dogs; [11]): -3%
- dp/dt max, change in percent of initial value (circulation of dogs; [11]): +72%
- dp/dt max, median initial value - value after cumulative dose (circulation of dogs; [11]): 3834-6590 mm Hg.s^-1
- Max, maximum increase in percent in frequency (circulation of dogs; [12]): +30%
- Max, maximum increase in percent in inotropy (circulation of dogs; [12]): +72%
- HR, percent change from initial value in heart frequency (cat; D 0.01 mg/kg i.v.): +14%
- dp/dt max, percent change from initial value, left ventricle (cat; D 0.01 mg/kg i.v.): +104%

Compound: Cc1ccccc1OCC(O)CNCCOc1ccc(C(N)=O)cc1 (stereo not drawn) [Tolamolol, 1-[2-(4-carbamoylphenoxy)-ethylamino]-3-(2-methylphenoxy)-propan-2-ol, reference compound]
- LD50 (in vivo): 133000 µg/kg
- intrinsic sympathicomimetic activity (β-receptor): does not exhibit an "intrinsic sympathicomimetic activity"
- β-blocking efficacy compared with propranolol (β-receptor): about equal to that of propranolol
- β-receptor blocking selectivity (β-receptor): cardioselective β-receptor blocking agent
- HR, percent change from initial value in heart frequency (cat; D 0.10 mg/kg i.v.): -10%
- dp/dt max, percent change from initial value, left ventricle (cat; D 0.10 mg/kg i.v.): -17%

Compound: OC(CNCCNc1ccccc1Cl)COc1ccccc1 (stereo not drawn) [Example 1, 3-[β-(2-chlorophenylamino)-ethyl]-amino-2-hydroxy-1-phenoxypropane]
- LD50 (in vivo): 21000 µg/kg
- ED30 (circulation of dogs; [1]): 20 µg/kg
- ED30 (circulation of dogs; [4]): 11 µg/kg
- Cardiac frequency, change in percent of initial value (circulation of dogs; [13]): +34%
- Cardiac frequency, median initial value - value after cumulative dose (circulation of dogs; [13]): 80-107 n.min^-1
- Cardiac output, change in percent of initial value (circulation of dogs; [13]): +69%
- Cardiac output, median initial value - value after cumulative dose (circulation of dogs; [13]): 115 to 195 mL/min/kg
- Diastolic blood pressure, change in percent of initial value (circulation of dogs; [13]): +2%
- Diastolic blood pressure, median initial value - value after cumulative dose (circulation of dogs; [13]): 111-113 mm Hg
- dp/dt max, change in percent of initial value (circulation of dogs; [13]): +76%
- dp/dt max, median initial value - value after cumulative dose (circulation of dogs; [13]): 3028-5326 mm Hg.s^-1
- Max, maximum increase in percent in inotropy (circulation of dogs; [6]): +91%
- Max, maximum increase in percent in frequency (circulation of dogs; dog, at 60 μg/kg, i.v. infusion): +37%
- HR, percent change from initial value in heart frequency (cat; D 0.01 mg/kg i.v.): +11%
- dp/dt max, percent change from initial value, left ventricle (cat; D 0.01 mg/kg i.v.): +59%
